By inhibition is commonly meant the drop in the measured response relative to a control, in per cent. Broadly, the IC50 is the concentration needed to halve the response being measured. Read a low IC50 as inhibition by little substance.

This is an account of results in patent US8524755B2 (priority 2009, dated 2013).

Test [1] deals with T1, Thyrotropin Releasing Hormone TRH1 (h) (Homo sapiens, UniProt P34981).
T1 construct: expressed in transfected cells; host or cells: CHO cells
T1 sequence (P34981 1-398): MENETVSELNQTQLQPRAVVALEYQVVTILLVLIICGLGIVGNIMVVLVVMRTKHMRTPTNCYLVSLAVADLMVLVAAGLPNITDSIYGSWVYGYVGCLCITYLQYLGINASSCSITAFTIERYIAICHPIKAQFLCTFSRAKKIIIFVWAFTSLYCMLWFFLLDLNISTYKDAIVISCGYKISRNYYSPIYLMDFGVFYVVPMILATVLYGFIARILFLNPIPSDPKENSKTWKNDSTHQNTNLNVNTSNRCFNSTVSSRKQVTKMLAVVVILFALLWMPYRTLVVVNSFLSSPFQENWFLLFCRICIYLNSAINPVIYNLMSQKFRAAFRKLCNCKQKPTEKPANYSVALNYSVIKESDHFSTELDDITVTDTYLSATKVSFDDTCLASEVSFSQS
Kind of test: Binding TRH1 (h) (ag). The settings on record: read-out: % Inhibition of Control Specific Binding @ 10 μM. Here is the method: (§1) Radioligand binding assay methods utilized to measure the activity of compounds of the invention will be familiar to those skilled in the art. In each assay case, the assay components such as, for example, the cell-type, ligand, reference compound and the like, will be familiar to practitioners of such an assay.
(§2) Analysis and Expression of Results: Compounds of the invention were tested in the biochemical assays and percent inhibition of specific binding was determined. The specific ligand binding to the receptors is defined as the difference between the total binding and the nonspecific binding determined in the presence of an excess of unlabelled ligand. The results are expressed as a percent inhibition of control specific binding (100−((measured specific binding/control specific binding)×100)) obtained in the presence of test compounds.

Test [2] has as its target T2, human GABAA α1β3 receptor (Homo sapiens, UniProt P14867+P28472).
T2 construct: expressed in transfected cells; host or cells: Xenopus laevis oocytes, cDNA injection
T2 sequence (P14867 28-456): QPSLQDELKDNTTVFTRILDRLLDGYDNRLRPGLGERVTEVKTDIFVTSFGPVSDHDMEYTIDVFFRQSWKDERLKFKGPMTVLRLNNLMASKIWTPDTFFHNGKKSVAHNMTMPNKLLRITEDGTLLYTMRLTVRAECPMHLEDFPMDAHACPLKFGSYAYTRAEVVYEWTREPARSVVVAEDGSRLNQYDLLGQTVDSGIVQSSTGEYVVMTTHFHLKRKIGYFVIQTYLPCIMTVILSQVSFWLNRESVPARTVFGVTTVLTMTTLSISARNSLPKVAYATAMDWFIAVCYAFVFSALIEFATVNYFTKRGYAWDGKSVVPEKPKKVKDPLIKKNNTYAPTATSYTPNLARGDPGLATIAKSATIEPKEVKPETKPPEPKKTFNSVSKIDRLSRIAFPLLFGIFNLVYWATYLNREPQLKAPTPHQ
T2 sequence (P28472 26-473): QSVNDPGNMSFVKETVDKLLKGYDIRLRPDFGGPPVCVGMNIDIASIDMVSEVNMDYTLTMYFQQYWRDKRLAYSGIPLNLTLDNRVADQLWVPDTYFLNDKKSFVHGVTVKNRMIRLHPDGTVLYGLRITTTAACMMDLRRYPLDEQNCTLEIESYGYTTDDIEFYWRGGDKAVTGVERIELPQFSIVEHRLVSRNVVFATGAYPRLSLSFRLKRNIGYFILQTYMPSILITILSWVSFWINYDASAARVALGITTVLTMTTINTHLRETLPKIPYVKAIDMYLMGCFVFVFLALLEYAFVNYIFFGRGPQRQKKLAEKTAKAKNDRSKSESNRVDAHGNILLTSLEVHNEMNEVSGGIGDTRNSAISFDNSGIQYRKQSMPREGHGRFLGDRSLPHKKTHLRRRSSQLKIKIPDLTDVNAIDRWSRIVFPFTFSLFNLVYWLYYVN
Kind of test: cell-based. The settings on record: for inhibition at 100 µM: read-out: α1β3 GABAA % Inhibition @ 100 μM; for IC50: α1β3 GABAA IC50 (μM).

The subject of the next test is GABA (ns). Kind of test: Binding GABA (ns) (ag). Also noted: species or system rat. Here is the method:
as §1, §2

Another test addresses T3, PDE2A (h) (Homo sapiens, UniProt O00408).
T3 construct: host or cells: Sf9 cells
Kind of test: Enzyme assay PDE2A (h). It is filed as biochemical. The settings on record: read-out: % Inhibition of Control Values @ 10 μM. The source says: (§3) The enzyme assays provided below will be familiar to those skilled in the art.
(§4) Analysis and Expression of Results: The results are expressed as a percent of control specific activity ((measured specific activity/control specific activity)×100) obtained in the presence of the test compounds.

The target of the next test is T4, Dopamine D1 (h) (Homo sapiens, UniProt P21728).
T4 construct: expressed in transfected cells; host or cells: CHO cells
T4 sequence (P21728 whole entry): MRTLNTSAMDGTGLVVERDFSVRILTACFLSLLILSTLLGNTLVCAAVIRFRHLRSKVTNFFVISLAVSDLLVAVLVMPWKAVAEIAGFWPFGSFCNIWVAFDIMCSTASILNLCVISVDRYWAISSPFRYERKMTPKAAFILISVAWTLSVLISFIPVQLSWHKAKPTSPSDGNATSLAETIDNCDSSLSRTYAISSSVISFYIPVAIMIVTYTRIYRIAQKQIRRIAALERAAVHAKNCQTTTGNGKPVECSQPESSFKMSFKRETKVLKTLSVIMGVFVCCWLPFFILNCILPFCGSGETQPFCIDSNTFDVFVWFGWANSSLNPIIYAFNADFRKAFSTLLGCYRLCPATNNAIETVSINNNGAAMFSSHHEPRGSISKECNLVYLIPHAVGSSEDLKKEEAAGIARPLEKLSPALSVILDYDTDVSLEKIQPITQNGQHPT
Kind of test: Binding D1 (h) (aa). The settings on record: read-out: % Inhibition of Control Specific Binding @ 10 μM. Here is the method:
as §1, §2

In another test the target is T5, PNMT (Bos taurus, UniProt P10938).
T5 construct: bovine adrenal medulla; from tissue; host or cells: bovine adrenal medulla
T5 sequence (P10938 1-283): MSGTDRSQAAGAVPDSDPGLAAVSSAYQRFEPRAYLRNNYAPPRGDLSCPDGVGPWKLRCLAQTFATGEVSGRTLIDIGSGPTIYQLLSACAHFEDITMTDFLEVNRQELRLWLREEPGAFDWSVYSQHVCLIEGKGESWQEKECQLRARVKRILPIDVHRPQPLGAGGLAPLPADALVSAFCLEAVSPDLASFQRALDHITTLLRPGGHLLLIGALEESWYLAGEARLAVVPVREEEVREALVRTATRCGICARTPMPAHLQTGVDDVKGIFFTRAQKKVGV
The test can be described thus: Enzyme assay PNMT. It is filed as biochemical, bovine. The settings on record: read-out: % Inhibition of Control Values @ 10 μM.
Source text: as §3, §4

The next test addresses T6, Adenosine A1 (h) (Homo sapiens, UniProt P30542).
T6 construct: expressed in transfected cells; host or cells: CHO cells
T6 sequence (P30542 1-326): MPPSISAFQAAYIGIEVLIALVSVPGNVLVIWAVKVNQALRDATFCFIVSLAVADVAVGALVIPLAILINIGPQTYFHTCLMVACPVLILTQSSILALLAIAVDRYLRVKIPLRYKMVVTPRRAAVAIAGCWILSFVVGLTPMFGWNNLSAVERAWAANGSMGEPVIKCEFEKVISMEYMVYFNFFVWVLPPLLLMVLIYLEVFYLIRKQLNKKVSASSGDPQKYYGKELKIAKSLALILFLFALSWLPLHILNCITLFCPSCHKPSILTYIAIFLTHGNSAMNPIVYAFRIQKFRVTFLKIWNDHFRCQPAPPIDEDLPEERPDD
Kind of test: Binding A1 (h) (aa). The settings on record: read-out: % Inhibition of Control Specific Binding @ 10 μM. Here is the method: as §1, §2

Test [3] relates to Ca^2+ channel (L, dihydropyridine site). The test can be described thus: Binding Ca2+ channel (L, dihydropyridine site) (aa). Also noted: species or system rat. Here is the method:
as §1, §2

The next test concerns the target T7, Melanocortin MC4 (h) (Homo sapiens, UniProt P32245).
T7 construct: expressed in transfected cells; host or cells: CHO cells
The test can be described thus: Binding MC4 (h) (ag). The settings on record: read-out: % Inhibition of Control Specific Binding @ 10 μM. Here is the method:
as §1, §2

The subject of test [4] is Benzodiazepine BZD (central). The test can be described thus: Binding BZD (central) (ag). Set-up: species or system rat. Here is the method:
as §1, §2

The target in a further test is T8, β1 (h) (Homo sapiens, UniProt P08588).
T8 construct: expressed in transfected cells; host or cells: HEK-293 cells
T8 sequence (P08588 whole entry): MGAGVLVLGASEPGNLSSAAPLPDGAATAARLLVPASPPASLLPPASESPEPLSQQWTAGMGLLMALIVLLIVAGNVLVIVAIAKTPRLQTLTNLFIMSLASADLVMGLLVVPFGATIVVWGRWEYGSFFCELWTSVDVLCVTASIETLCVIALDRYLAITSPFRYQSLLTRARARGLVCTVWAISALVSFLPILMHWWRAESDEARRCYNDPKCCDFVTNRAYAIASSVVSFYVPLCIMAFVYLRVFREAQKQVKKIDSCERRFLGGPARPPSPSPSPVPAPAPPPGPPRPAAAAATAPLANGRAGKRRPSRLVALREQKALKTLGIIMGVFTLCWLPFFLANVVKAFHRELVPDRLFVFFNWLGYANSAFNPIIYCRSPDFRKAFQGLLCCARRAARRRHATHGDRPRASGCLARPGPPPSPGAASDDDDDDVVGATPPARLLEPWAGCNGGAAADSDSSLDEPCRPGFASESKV
The test can be described thus: Binding β1 (h) (ag). The settings on record: read-out: % Inhibition of Control Specific Binding @ 10 μM. Here is the method:
as §1, §2

T7 sequence (P32245 whole entry): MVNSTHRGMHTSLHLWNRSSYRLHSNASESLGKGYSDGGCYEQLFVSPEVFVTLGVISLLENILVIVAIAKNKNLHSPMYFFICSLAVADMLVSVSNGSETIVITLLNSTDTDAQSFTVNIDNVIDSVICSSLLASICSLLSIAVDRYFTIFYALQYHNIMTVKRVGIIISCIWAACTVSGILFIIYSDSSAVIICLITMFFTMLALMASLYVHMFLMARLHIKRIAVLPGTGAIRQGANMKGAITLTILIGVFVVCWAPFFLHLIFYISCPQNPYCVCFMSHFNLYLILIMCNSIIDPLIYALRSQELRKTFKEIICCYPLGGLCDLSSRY
T3 sequence (O00408 whole entry): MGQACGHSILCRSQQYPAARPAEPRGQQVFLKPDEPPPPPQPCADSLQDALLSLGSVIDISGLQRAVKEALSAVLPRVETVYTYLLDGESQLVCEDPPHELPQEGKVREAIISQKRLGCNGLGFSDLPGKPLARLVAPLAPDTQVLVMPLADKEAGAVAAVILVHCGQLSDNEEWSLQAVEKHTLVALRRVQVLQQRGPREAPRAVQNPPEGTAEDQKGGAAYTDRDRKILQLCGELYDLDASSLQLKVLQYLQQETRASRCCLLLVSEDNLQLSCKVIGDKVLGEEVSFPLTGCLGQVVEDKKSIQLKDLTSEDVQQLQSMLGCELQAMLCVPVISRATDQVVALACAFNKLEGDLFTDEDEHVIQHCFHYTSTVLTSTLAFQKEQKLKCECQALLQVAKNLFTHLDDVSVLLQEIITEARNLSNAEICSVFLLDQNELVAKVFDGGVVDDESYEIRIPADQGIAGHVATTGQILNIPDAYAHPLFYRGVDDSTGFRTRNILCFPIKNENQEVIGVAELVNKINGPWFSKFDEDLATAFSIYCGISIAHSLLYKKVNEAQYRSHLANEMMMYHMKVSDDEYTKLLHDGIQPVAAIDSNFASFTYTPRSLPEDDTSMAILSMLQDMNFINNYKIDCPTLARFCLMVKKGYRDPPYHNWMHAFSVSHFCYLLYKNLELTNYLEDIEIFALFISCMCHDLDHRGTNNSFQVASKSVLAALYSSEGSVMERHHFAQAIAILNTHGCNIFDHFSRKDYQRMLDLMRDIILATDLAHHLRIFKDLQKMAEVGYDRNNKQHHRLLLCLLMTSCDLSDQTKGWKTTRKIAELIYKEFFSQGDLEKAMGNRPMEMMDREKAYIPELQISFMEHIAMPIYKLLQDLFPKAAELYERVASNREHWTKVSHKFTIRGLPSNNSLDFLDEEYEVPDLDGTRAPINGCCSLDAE

With `CNC(=O)c1ccc(N2C(=O)N(c3ccc(C#N)c(C(F)(F)F)c3)C(=O)C2(C)C)cc1F` [(MIV), 4-(3-(4-cyano-3-(trifluoromethyl)phenyl)-5,5-dimethyl-2,4-dioxoimidazolidin-1-yl)-2-fluoro-N-methylbenzamide], the inhibition at 10 µM was 0% in [1]; 0% at PDE2A (h); -17% at Dopamine D1 (h); 14% at PNMT; 6% at Adenosine A1 (h); -15% on Melanocortin MC4 (h). In addition, the inhibition at 10 µM on β1 (h) turned out to be 3%. Further, the inhibition at 100 µM in [2] came out at 78%. The results for the “% Inhibition of Control Specific Binding @ 10 μM” value (shortened to “% Inhibition”) (in the test with GABA (ns); in test [3]; in test [4]) were 5%, 16% and −29%, respectively.

As for `CC1(C)C(=O)N(c2ccc(C#N)c(C(F)(F)F)c2)C(=O)N1c1ccc(C(N)=O)c(F)c1` [(MIII), 4-(3-(4-cyano-3-(trifluoromethyl)phenyl)-5,5-dimethyl-2,4-dioxoimidazolidin-1-yl)-2-fluorobenzamide], the inhibition at 10 µM is -5% in [1]; 2% on PDE2A (h); -17% at Dopamine D1 (h); -2% at PNMT; 2% on Adenosine A1 (h); -11% on Melanocortin MC4 (h). The inhibition at 10 µM at β1 (h) worked out at 2%. For the same molecule, in [2], the inhibition at 100 µM came out at 57%. In test [2], this molecule returned an IC50 of 4 ± 3.15 µM. Further, the entries for the “% Inhibition” value (in the test on GABA (ns); in test [3]; in test [4]) were −10%, −2% and −20%, respectively.

Turning to `CC1(C)C(=O)N(c2ccc(C#N)c(C(F)(F)F)c2)C(=S)N1c1ccc(C(=O)O)c(F)c1` [(MI), 4-(3-(4-cyano-3-(trifluoromethyl)phenyl)-5,5-dimethyl-4-oxo-2-thioxoimidazolidin-1-yl)-2-fluorobenzoic acid], the inhibition at 10 µM in test [1] is 18%; on PDE2A (h), 12%; on Dopamine D1 (h) it was -18%; on PNMT, -6%; at Adenosine A1 (h) it was 10%; at Melanocortin MC4 (h), -23%. Moreover, the inhibition at 10 µM at β1 (h) was -2%. The “inhibition achieved at the highest concentration” value in test [2] was determined as 75±18.4%. Also, the inhibition at 100 µM in [2] turned out to be 90%. The molecule further gave an IC50 in [2] of 20.7 ± 6 µM. The results for the “% Inhibition” value (with GABA (ns); in test [3]; in test [4]) were −12%, 16% and −35%, respectively.

For `CC1(C)C(=O)N(c2ccc(C#N)c(C(F)(F)F)c2)C(=S)N1c1ccc(C(N)=O)c(F)c1` [(MII), 4-(3-(4-Cyano-3-(trifluoromethyl)phenyl)-5,5-dimethyl-4-oxo-2-thioxoimidazolidin-1-yl)-2-fluorobenzamide], the inhibition at 10 µM in test [1] is -4%; at PDE2A (h) it was 2%; at Dopamine D1 (h), -14%; on PNMT, -4%; on Adenosine A1 (h), 9%; at Melanocortin MC4 (h), -25%. The inhibition at 10 µM on β1 (h) was -7%. For the same molecule, the “inhibition achieved at the highest concentration” value in [2] is recorded as 80±10%. Further, the inhibition at 100 µM in [2] amounted to 88%. Also, the “% Inhibition” value in the test with GABA (ns) is 0%; in test [3] it was 18%; in test [4], −37%.
